Assay type in all cases: cell-based, mouse
Assay [1] deals with RAW267.4 cells. As to the kind of experiment: Cell proliferation of RAW267.4 cells (attached cell count after 3 days culture). The following applies: single agent 0.1, 1.0, 10 and 100 μM, control 0.1% ethanol vehicle, FIGS. 1A and B. The method, then:
RAW267.4 cells were cultured for 3 days in Dulbecco's modification of Eagle's medium containing vehicle (0.1% ethanol), (A) alendronate, (B) genistein or (C) alendronate plus genistein. After culture, the number of attached cells on the dish was counted. Data are presented as the mean±standard deviation of two replicate wells per data set using different dishes and cell preparation. *P<0.001 vs. control group (grey bar) as determined by one-way analysis of variance and Tukey-Kramer post hoc test.
RAW267.4 cells (1×10^5/ml cells/well; 2 ml medium added per well in 24-well plates) were cultured in DMEM containing 10% FBS and 1% P/S for 3 days in a water-saturated atmosphere containing 5% CO2 and 95% air at 37° C. (23). The cells were cultured in the presence or absence of vehicle (ethanol; final concentration 0.1%), alendronate (0.1, 1, 10 or 100 μM), genistein (0.1, 1, 10 or 100 μM), or alendronate (0.1, 1, 10 or 100 μM) plus genistein (0.1, 1, 10, or 100 After culture, cells were detached from each culture dish and counted. Following trypsinization of each of culture dish using 0.2% trpysin plus 0.02% EDTA in Ca^2+/Mg^2+-free PBS for 2 min at 37° C., cells detached from the dish were collected following centrifugation at 150×g (4° C.) for 5 min (23). Cells were resuspended in PBS solution and stained with eosin. […] For each dish, the average of two counts was calculated. […]

In assay [2] the test system is RAW267.4 cells. As to the kind of experiment: Cell death of confluent RAW267.4 cells (cell count after additional 2 days culture). The following applies: single agent 0.1, 1.0, 10 and 100 μM, FIGS. 2A and B. The method, then:
RAW267.4 cells were cultured for 3 days in Dulbecco's modification of Eagle's medium, and then the cells were additionally cultured for 2 days in the presence or absence of (A) alendronate, (B) genistein or alendronate plus genistein. After culture, the number of attached cells on the dish was counted.
RAW267.4 cells (1×10^5/ml cells/well; 2 ml medium added per well in 24-well plates) were cultured in DMEM containing 10% FBS and 1% P/S for 3 days when confluence was reached (24). The cells were then cultured for an additional 2 days in the presence or absence of alendronate (0.1, 1, 10 or 100 μM), genistein (0.1, 1, 10 or 100 μM), or alendronate (0.1, 1, 10 or 100 μM) plus genistein (0.1, 1, 10 or 100 μM). After culture, cells were detached from each culture dish and counted as described for the cell proliferation assay.

In assay [3] the test system is RAW264.7 cells. As to the kind of experiment: Osteoclastogenesis assay, RANKL-induced, TRAP staining (TRAP-positive multinucleated cells). The following applies: RANKL 30 ng/ml, 6 days; for effect on RANKL-induced osteoclastic differentiation (TRAP+ multinucleated cells): FIG. 3A; for effect on RANKL-stimulated osteoclastic differentiation (TRAP+ multinucleated cells): FIG. 3B. On the procedure:
Cells were cultured for 6 days with RANKL (30 ng/ml) pre-incubated for 10 min with crosslinking anti-poly-histidine antibody (2.5 μg/ml) in the presence or absence of vehicle (0.1% ethanol), (A) alendronate, (B) genistein or (C) alendronate plus genistein. After 6 days of culture, the cells were fixed and stained for TRAP.
RAW264.7 cells were cultured in 96-well plates in DMEM supplemented with 10% FBS and 1% P/S at a density of 1×10^4 cells/well. Cells were cultured for 6 days with RANKL (30 ng/ml) pre-incubated for 10 min with crosslinking anti-poly-histidine antibody (2.5 μg/ml; IC050P; R&D Systems, Inc., Minneapolis, Minn., USA) to induce osteoclast formation (21,22), in the presence or absence of vehicle (ethanol; final concentration 0.1%), alendronate (0.1, 1, 10 or 100 μM), genistein (0.1, 1, 10 or 100 μM), or alendronate (0.1, 1, 10 or 100 μM) plus genistein (0.1, 1, 10 or 100 μM). After 6 days of culture, the cells were fixed and stained for TRAP, a specific marker of the osteoclast phenotype, using a leukocyte acid phosphatase kit. […] TRAP-positive multinucleated cells (MNCs with at least three nuclei) were considered to be osteoclast-like cells, and the cells were counted using light microscopy (Olympus MTV-3). MNC scores are expressed as the mean±standard deviation of six cultures with two replicate wells per data set using different dishes and cell preparation.

In the case of `NCCCC(O)(P(=O)(O)O)P(=O)(O)O` [alendronate], in assay [1], the “effect on the proliferation of RAW267.4 cells (number of attached cells) vs control” value is listed as “did not have a significant effect”. For the same molecule, the “alteration in the number of RAW267.4 cells (cell death)” value in assay [2] is listed as “did not cause a significant alteration”. For the same molecule, the “effect on RANKL-induced osteoclastic differentiation (TRAP+ multinucleated cells)” value is “suppressed” in assay [3] (alendronate alone 100 μM); “had no significant effect” in assay [3] (alendronate alone 0.1, 1.0 and 10 μM).
With `O=c1c(-c2ccc(O)cc2)coc2cc(O)cc(O)c12` [genistein, 4′,5,7-trihydroxyisoflavone], the “effect on the proliferation of RAW267.4 cells (number of attached cells) vs control” value in assay [1] is “did not have a significant effect”. For the same molecule, the “alteration in the number of RAW267.4 cells (cell death)” value in assay [2] is given as “did not cause a significant alteration”. Besides, the “effect on RANKL-stimulated osteoclastic differentiation (TRAP+ multinucleated cells)” value is “did not reveal an effect” in assay [3] (genistein alone 0.1 and 1.0 μM); “suppressed” in assay [3] (genistein alone 10 and 100 μM).

Values taken from patent publication US20190380999A1, “COMBINATIONS OF GENISTEIN AND BISPHOSPHONATES” (Primus Pharmaceuticals, Inc., priority 2018, published 2019).
